EP2611798B1, “PYRIDAZINONES, METHOD OF MAKING, AND METHOD OF USE THEREOF” (Gilead Connecticut, Inc., priority 2010, dated 2012)

test system: production of CD69 by B lymphocytes in human whole blood; test: CD69 Whole Blood Assay (Example 907); type: cell-based; conditions: Lymphocyte; human whole blood activated with goat F(ab')2 anti-human IgM, 20 hours; percent CD69 positive cells that are also CD20 positive
Description: A CD69 Whole Blood Assay can be conducted on Formula I compounds to determine the ability of compounds to inhibit the production of CD69 by B lymphocytes in human whole blood activated by crosslinking surface IgM with goat F(ab')2 anti-human IgM (Example 907).
Human blood is obtained from healthy volunteers, with the following restrictions: 1 week drug-free, non-smokers. Blood (approximately 20 mls to test 8 compounds) is collected by venipuncture into Vacutainer® (Becton, Dickinson and Co.) tubes with sodium heparin.
Solutions of Formula I compounds at 10 mM in DMSO are diluted 1:10 in 100% DMSO, then are diluted by three-fold serial dilutions in 100% DMSO for a ten point dose-response curve. The compounds are further diluted 1:10 in PBS and then an aliquot of 5.5 µl of each compound is added in duplicate to a 2 ml 96-well plate; 5.5 µl of 10% DMSO in PBS is added as control and no-stimulus wells. Human whole blood - HWB (100 µl) is added to each well. After mixing the plates are incubated at 37 °C, 5% CO2, 100% humidity for 30 minutes. Goat F(ab')2 anti-human IgM (10 µl of a 500 µg/ml solution, 50 µg/ml final) is added to each well (except the no-stimulus wells) with mixing and the plates are incubated for an additional 20 hours. At the end of the 20 hour incubation, samples are incubated with fluorescent labeled antibodies for 30 minutes, at 37 °C, 5% CO2, 100% humidity. Include induced control, unstained and single stains for compensation adjustments and initial voltage settings. Samples are then lysed with PharM Lyse™ (BD Biosciences Pharmingen) according to the manufacturer's instructions. Samples are then transferred to a 96 well plate suitable to be run on the BD Biosciences HTS 96 well system on the LSRII machine. Data acquired and Mean Fluorescence Intensity values were obtained using BD Biosciences DIVA Software. Results are initially analyzed by FACS analysis software (Flow Jo). […] The IC50 values are calculated by Prism version 5, using a nonlinear regression curve fit.

Row | SMILES | IC50 [nM]
1 | CC(=O)N1CCn2nc(Nc3cc(-c4cccc(N5Cc6cc(C(C)(C)C)sc6C5=O)c4CCO)nn(C)c3=O)cc2C1 [Compound 128, 6-(3-{2-tert-butyl-6-oxo-4H,5H,6H-thieno[2,3-c]pyrrol-5-yl}-2-(2-hydroxyethyl)phenyl)-4-({5-acetyl-4H,5H,6H,7H-pyrazolo[1,5-a]pyrazin-2-yl}amino)-2-methyl-2,3-dihydropyridazin-3-one] | 568

molecular target: T1, full length human wildtype Btk (Homo sapiens, UniProt Q06187); test: Biochemical Btk Kinase Assay (Example 901); conditions: time-resolved fluorescence, final ATP concentration 40 µM; alternatively Lanthascreen assay, ATP 25 uM
T1 construct: V5 (C); 6xHis (C); made in house; host or cells: Sf9 insect cells (baculovirus, pFastBac)
Description: Formula I compounds were tested by a standard biochemical Btk Kinase Assay (Example 901). A generalized procedure for a standard biochemical Btk Kinase Assay that can be used to test Formula I compounds is as follows. […] Btk enzyme is prepared as follows: full length human wildtype Btk (accession number NM-000061) with a C-terminal V5 and 6x His tag was subcloned into pFastBac vector for making baculovirus carrying this epitope-tagged Btk. Generation of baculovirus is done based on Invitrogen's instructions detailed in its published protocol "Bac-to-Bac Baculovirus Expression Systems" (Cat. Nos. 10359-016 and 10608-016). Passage 3 virus is used to infect Sf9 cells to overexpress the recombinant Btk protein. The Btk protein is then purified to homogeneity using Ni-NTA column. The purity of the final protein preparation is greater than 95% based on the sensitive Sypro-Ruby staining. A solution of 200 µM ATP is prepared in water and adjusted to pH7.4 with 1N NaOH. A quantity of 1.25 µL of compounds in 5%DMSO is transferred to a 96-well ½ area Costar polystyrene plate. Compounds are tested singly and with an 11-point dose-responsive curve (starting concentration is 10 µM; 1:2 dilution). A quantity of 18.75 µL of master mix minus enzyme (as a negative control) and master mix plus enzyme is transferred to appropriate wells in 96-well ½ area costar polystyrene plate. 5 µL of 200 µM ATP is added to that mixture in the 96-well ½ area Costar polystyrene plate for final ATP concentration of 40 µM. The reaction is allowed to incubate for 1 hour at room temperature. The reaction is stopped with Perkin Elmer 1X detection buffer containing 30 mM EDTA, 20 nM SA-APC, and 1 nM PT66 Ab. The plate is read using time-resolved fluorescence with a Perkin Elmer Envision using excitation filter 330 nm, emission filter 665 nm, and 2nd emission filter 615 nm. IC50 values are subsequently calculated. Alternatively, the Lanthascreen assay can be used to evaluate Btk activity through quantification of its phosphorylated peptide product. The FRET (Fluorescence Resonance Energy Transfer) that occurs between the fluorescein on the peptide product and the terbium on the detection antibody decreases with the addition of inhibitors of Btk that reduce the phosphorylation of the peptide. […] After incubation for 60 minutes at room temperature, the reaction is stopped by the addition of a final concentration of 2 nM Tb-PY20 detection antibody in 60 mM EDTA for 30 minutes at room temperature. Detection is determined on a Perkin Elmer Envision with 340 nm excitation and emission at 495 nm and 520 nm. Exemplary Btk inhibition IC50 values are in Tables and 2.

T1 sequence (Q06187 whole entry): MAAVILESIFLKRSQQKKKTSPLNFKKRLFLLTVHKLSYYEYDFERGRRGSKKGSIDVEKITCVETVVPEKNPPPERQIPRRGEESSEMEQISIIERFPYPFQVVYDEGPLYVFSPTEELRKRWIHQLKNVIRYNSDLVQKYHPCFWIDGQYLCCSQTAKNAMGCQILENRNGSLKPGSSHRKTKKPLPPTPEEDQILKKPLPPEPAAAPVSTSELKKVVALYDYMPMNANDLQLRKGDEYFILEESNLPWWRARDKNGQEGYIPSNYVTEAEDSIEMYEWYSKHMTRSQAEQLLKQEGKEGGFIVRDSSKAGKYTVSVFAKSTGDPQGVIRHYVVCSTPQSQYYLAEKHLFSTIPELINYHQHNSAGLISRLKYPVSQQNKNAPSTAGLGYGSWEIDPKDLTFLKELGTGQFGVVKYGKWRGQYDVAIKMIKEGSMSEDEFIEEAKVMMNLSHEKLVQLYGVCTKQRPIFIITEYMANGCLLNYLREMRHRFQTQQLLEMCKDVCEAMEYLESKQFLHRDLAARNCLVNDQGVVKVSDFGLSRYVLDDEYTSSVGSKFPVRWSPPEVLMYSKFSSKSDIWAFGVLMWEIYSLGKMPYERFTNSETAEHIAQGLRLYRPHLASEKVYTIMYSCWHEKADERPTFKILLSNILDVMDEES

Row | SMILES | IC50 [nM]
2 | Cc1c(-c2cc(Nc3cc(C)n(C)n3)c(=O)[nH]n2)cccc1N1Cc2cc(C(C)(C)C)sc2C1=O [Compound 112, 6-(3-{2-tert-butyl-6-oxo-4H,5H,6H-thieno[2,3-c]pyrrol-5-yl}-2-methylphenyl)-4-[(1,5-dimethyl-1 H-pyrazol-3-yl)amino]-2,3-dihydropyridazin-3-one] | 3
3 | Cc1cc(Nc2cc(-c3cccc(N4Cc5cc(C(C)(C)C)sc5C4=O)c3C)n[nH]c2=O)no1 [Compound 115, 6-(3-{2-tert-butyl-6-oxo-4H,5H,6H-thieno[2,3-c]pyrrol-5-yl}-2-methylphenyl)-4-[(5-methyl-1,2-oxazol-3-yl)amino]-2,3-dihydropyridazin-3-one] | 18
4 | Cc1cc(Nc2cc(-c3ccc(F)c(N4Cc5cc(C(C)(C)C)sc5C4=O)n3)n[nH]c2=O)nn1C [Compound 117, 6-(6-{2-tert-butyl-b-oxo-4H,5H,6H-thieno[2,3-c]pyrrol-5-yl}-5-fluoropyridin-2-yl)-4-[(1,5-dimethyl-1H-pyrazol-3-yl)amino]-2,3-dihydropyridazin-3-one] | 45
5 | Cc1c(-c2cc(Nc3nc4c(s3)CNCC4)c(=O)[nH]n2)cccc1N1Cc2cc(C(C)(C)C)sc2C1=O [Compound 118, 6-(3-{2-tert-butyl-6-oxo-4H,5H,6H-thieno[2,3-c]pyrrol-5-yl}-2-methylphenyl)-4-{4H,5H,6H,7H-pyrido[4,3-d][1,3]thiazol-2-ylamino}-2,3-dihydropyridazin-3-one] | 65
6 | Cc1c(-c2cc(Nc3cc(CN4CC(F)(F)C4)n(C)n3)c(=O)[nH]n2)cccc1N1Cc2cc(C(C)(C)C)sc2C1=O [Compound 119, 6-(3-{2-tert-butyl-6-oxo-4H,5H,6H-thieno[2,3-c]pyrrol-5-yl}-2-methylphenyl)-4-({5-[(3,3-difluoroazetidin-1-yl)methyl]-1-methyl-1H-pyrazol-3-yl}amino)-2,3-dihydropyridazin-3-one] | 5
7 | CN1CCn2nc(Nc3cc(-c4cccc(N5Cc6cc(C(C)(C)C)sc6C5=O)c4CO)nn(C)c3=O)cc2C1 [Compound 120, 6-(3-{2-tert-butyl-6-oxo-4H,5H,6H-thieno[2,3-c]pyrrol-5-yl}-2-(hydroxymethyl)phenyl)-2-methyl-4-({5-methyl-4H,5H,6H,7H-pyrazolo[1,5-a]pyrazin-2-yl}amino)-2,3-dihydropyridazin-3-one] | 55

test system: CD86 surface expression; test: CD86 Inhibition Assay (Example 905), inhibition of B cell activity in total mouse splenocytes; type: cell-based, Balb/c mice; conditions: Splenocyte; total mouse splenocytes stimulated with 15 µg/ml IgM for 24 hr; gated on CD19+/7AAD- population
Description: A CD86 Inhibition assay can be conducted on Formula I compounds for the inhibition of B cell activity using total mouse splenocytes purified from spleens of 8-16 week old Balb/c mice (Example 905).
A generalized procedure for a standard assay for the inhibition of B cell activity that can be used to test Formula I compounds is as follows. Total mouse splenocytes are purified from spleens of 8-16 week old Balb/c mice by red blood cell lysis (BD Pharmingen #555899). Testing compounds are diluted to 0.5% DMSO and incubated with 1.25 x 10^6 splenocytes in a final volume of 200 µl in flat clear bottom plates (Falcon 353072) for 60 min at 37°C. Cells are then stimulated with the addition of 15 µg/ml IgM (Jackson ImmunoResearch 115-006-020), and incubated for 24 hr at 37°C, 5% CO2. Following the 24 hr incubation, cells are transferred to conical bottom clear 96-well plates and pelleted by centrifugation at 1200 x g x 5 min. Cells are preblocked by CD16/CD32 (BD Pharmingen #553142), followed by triple staining with CD19-FITC (BD Pharmingen #553785), CD86-PE (BD Pharmingen #553692), and 7AAD (BD Pharmingen #51-68981E). Cells are sorted on a BD FACSCalibur and gated on the CD19^+/7AAD^- population. The levels of CD86 surface expression on the gated population is measured versus test compound concentration. Exemplary results are in Table 3.

Row | SMILES | EC50 [nM]
8 | Cc1c(-c2cc(Nc3cc4n(n3)CCN(C)C4)c(=O)[nH]n2)cccc1N1Cc2cc(C(C)(C)C)sc2C1=O [Compound 101, 6-(3-{2-tert-butyl-6-oxo-4H,5H,6H-thieno[2,3-c]pyrrol-5-yl}-2-methylphenyl)-4-({5-methyl-4H,5H,6H,7H-pyrazolo[1,5-a]pyrazin-2-yl}amino)-2,3-dihydropyridazin-3-one] | 192
9 | Cc1c(-c2cc(Nc3cc(CN4CC(F)(F)C4)n(C)n3)c(=O)[nH]n2)cccc1N1Cc2cc(C(C)(C)C)sc2C1=O [Compound 119, 6-(3-{2-tert-butyl-6-oxo-4H,5H,6H-thieno[2,3-c]pyrrol-5-yl}-2-methylphenyl)-4-({5-[(3,3-difluoroazetidin-1-yl)methyl]-1-methyl-1H-pyrazol-3-yl}amino)-2,3-dihydropyridazin-3-one] | 352
10 | CN1CCn2nc(Nc3cc(-c4cccc(N5Cc6cc(C(C)(C)C)sc6C5=O)c4CO)nn(C)c3=O)cc2C1 [Compound 120, 6-(3-{2-tert-butyl-6-oxo-4H,5H,6H-thieno[2,3-c]pyrrol-5-yl}-2-(hydroxymethyl)phenyl)-2-methyl-4-({5-methyl-4H,5H,6H,7H-pyrazolo[1,5-a]pyrazin-2-yl}amino)-2,3-dihydropyridazin-3-one] | 189
11 | Cc1c(-c2cc(Nc3cc4n(n3)CCN(C)C4)c(=O)n(C)n2)cc(F)cc1N1Cc2cc(C(C)(C)C)sc2C1=O [Compound 124, 6-(3-{2-tert-butyl-6-oxo-4H,5H,6H-thieno[2,3-c]pyrrol-5-yl}-5-fluoro-2-methylphenyl)-2-methyl-4-({5-methyl-4H,5H,6H,7H-pyrazolo[1,5-a]pyrazin-2-yl}amino)-2,3-dihydropyridazin-3-one] | 1100
12 | Cn1nc(-c2cccc(N3Cc4cc(C(C)(C)C)sc4C3=O)c2CO)cc(Nc2cc(C3CC3)[nH]n2)c1=O [Compound 127, 6-(3-{2-tert-butyl-6-oxo-4H,5H,6H-thieno[2,3-c]pyrrol-5-yl}-2-(hydroxymethyl)phenyl)-4-[(5-cyclopropyl-1H-pyrazol-3-yl)amino]-2-methyl-2,3-dihydropyridazin-3-one] | 178
13 | Cc1cc(Nc2cc(-c3cccc(N4Cc5cc(C(C)(C)C)sc5C4=O)c3CO)nn(C)c2=O)nn1C [Compound 131, 6-(3-{2-tert-butyl-6-oxo-4H,5H,6H-thieno[2,3-c]pyrrol-5-yl}-2-(hydroxymethyl)phenyl)-4-[(1,5-dimethyl-1H-pyrazol-3-yl)amino]-2-methyl-2,3-dihydropyridazin-3-one] | 139
14 | CC(=O)N1CCn2nc(Nc3cc(-c4cccc(N5Cc6cc(C(C)(C)C)sc6C5=O)c4CO)nn(C)c3=O)cc2C1 [Compound 132, 6-(3-{2-tert-butyl-6-oxo-4H,5H,6H-thieno[2,3-c]pyrrol-5-yl}-2-(hydroxymethyl)phenyl)-4-({5-acetyl-4H,5H,6H,7H-pyrazolo[1,5-a]pyrazin-2-yl}amino)-2-methyl-2,3-dihydropyridazin-3-one] | 113
15 | Cn1nc(-c2cccc(N3Cc4cc(C(C)(C)C)sc4C3=O)c2CO)cc(Nc2cc3n(n2)CCCOC3)c1=O [Compound 134, 6-(3-{2-tert-butyl-6-oxo-4H,5H,6H-thieno[2,3-c]pyrrol-5-yl}-2-(hydroxymethyl)phenyl)-2-methyl-4-{4H,6H,7H,8H-pyrazolo[3,2-c][1,4]oxazepin-2-ylamino}-2,3-dihydropyridazin-3-one] | 206
16 | Cn1nc(-c2cccc(N3Cc4cc(C(C)(C)C)sc4C3=O)c2CO)cc(Nc2ccncn2)c1=O [Compound 136, 6-(3-{2-tert-butyl-6-oxo-4H,5H,6H-thieno[2,3-c]pyrrol-5-yl}-2-(hydroxymethyl)phenyl)-2-methyl-4-(pyrimidin-4-ylamino)-2,3-dihydropyridazin-3-one] | 704
